# Key:
# bedstraw = test: Test B pre/postemergence bedstraw; assay type: in vivo, Galium aparine
# Summary of the method: (§1)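 Test chemicals in a non-phytotoxic solvent mixture with surfactant were sprayed preemergence onto planted seeds and postemergence onto plants 2 to 18 cm tall (1- to 4-leaf stage). After twelve to sixteen days in a greenhouse, injury was visually rated against untreated controls from 0 (no effect) to 10 (complete control).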
# blackgrass = test: Test B pre/postemergence blackgrass; assay type: in vivo, Alopecurus myosuroides
# Summary of the method: as §1
# surinam grass = test: Test B pre/postemergence surinam grass; assay type: in vivo, Brachiaria decumbens
# Summary of the method: as §1
# corn = test: Test B pre/postemergence corn; assay type: in vivo, Zea mays
# Summary of the method: as §1
# crabgrass = test: Test B pre/postemergence crabgrass; assay type: in vivo, Digitaria sanguinalis
# Summary of the method: as §1
# giant foxtail = test: Test B pre/postemergence giant foxtail; assay type: in vivo, Setaria faberii
# Summary of the method: as §1
# morningglory = test: Test B pre/postemergence morningglory; assay type: in vivo, Ipomoea hederacea
# Summary of the method: as §1
# pigweed = test: Test B pre/postemergence pigweed; assay type: in vivo, Amaranthus retroflexus
# Summary of the method: as §1
# rape = test: Test B pre/postemergence rape; assay type: in vivo, Brassica napus
# Summary of the method: as §1
# sugar beet = test: Test B pre/postemergence sugar beet; assay type: in vivo, Beta vulgaris; conditions: for Plant response rating, Sugarbeets: Rate 250 g/ha
# Summary of the method: as §1
# wheat = test: Test B pre/postemergence wheat; assay type: in vivo, Triticum aestivum; conditions: for Plant response rating, Wheat: Rate 250 g/ha
# Summary of the method: as §1
# wild oat = test: Test B pre/postemergence wild oat; assay type: in vivo, Avena fatua; conditions: for Plant response rating, Wild oats: Rate 250 g/ha
# Summary of the method: as §1
# purple nutsedge = test: Test B pre/postemergence purple nutsedge; assay type: in vivo, Cyperus rotundus
# Summary of the method: as §1
# rice = test: Test B flood test rice; assay type: in vivo, Oryza sativa
# Summary of the method: (§2)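 Flood test on plants grown to the 2-leaf stage; treated plants kept in greenhouse twelve to sixteen days, then visually rated against controls on a 0 (no effect) to 10 (complete control) scale.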
# smallflower flatsedge = test: Test B flood test smallflower flatsedge; assay type: in vivo, Cyperus difformis
# Summary of the method: as §2
# bamyardgrass = test: Test B flood test barnyardgrass; assay type: in vivo, Echinochloa crus-galli
# Summary of the method: as §2
# [1] = Postemergence, Rate 62 g/ha, scale 0 to 10, 0 is no effect, 10 is complete control
# [2] = Postemergence, Rate 250 g/ha, scale 0 to 10, 0 no effect, 10 complete control
# [3] = Preemergence, Rate 62 g/ha, scale 0 to 10 (0 no effect, 10 complete control)
# [4] = Preemergence, Rate 125 g/ha, scale 0 to 10 (0 no effect, 10 complete control)
# [5] = Preemergence, Rate 250 g/ha, scale of 0 to 10 where 0 is no effect and 10 is complete control
# [6] = Preemergence, Rate 500 g/ha, scale 0 to 10 (0 no effect, 10 complete control)
# [7] = Rate 125 g/ha, Postemergence, scale 0 to 10, 0 no effect, 10 complete control
# [8] = Rate 500 g/ha, Postemergence, scale 0 to 10, 0 no effect, 10 complete control
# [9] = Postemergence, Rate 125 g/ha, scale of 0 to 10 where 0 is no effect and 10 is complete control
# [10] = Rate 62 g/ha, Postemergence, scale of 0 to 10 where 0 is no effect and 10 is complete control
# [11] = Preemergence, Rate 125 g/ha, 0 is no effect, 10 is complete control
# [12] = Preemergence, scale of 0 to 10 where 0 is no effect and 10 is complete control
# [13] = Postemergence, scale 0 to 10, 0 is no effect, 10 is complete control
# [14] = Postemergence (flood test species), Rate 125 g/ha, scale of 0 to 10 where 0 is no effect and 10 is complete control
# [15] = Rate 62 g/ha, Postemergence section, flood test species, scale of 0 to 10 where 0 is no effect and 10 is complete control
# [16] = Rate 250 g/ha, Postemergence (flood test), scale 0 to 10, 0 is no effect, 10 is complete control
# [17] = Rate 500 g/ha, listed under Postemergence (flood test species), scale 0 to 10, 0 no effect, 10 complete control
compound,measurement,setting,value
CC(C)N(C(=O)n1oc(=O)n(C(C)C)c1=O)c1ccc(Cl)cc1 [Compound 114],Bedstraw plant response rating,bedstraw; [1],3
same,Bedstraw plant response rating,bedstraw; [2],6
same,Bedstraw plant response rating,bedstraw; [3],0
same,"Plant response rating, Bedstraw",bedstraw; [4],0
same,"Plant response rating, Bedstraw",bedstraw; [5],0
same,Bedstraw plant response rating,bedstraw; [6],0
same,Bedstraw plant response rating,bedstraw; [7],6
same,Bedstraw plant response rating,bedstraw; [8],7
same,Blackgrass plant response rating,blackgrass; [9],2
same,Blackgrass plant response rating,blackgrass; [2],7
same,Blackgrass plant response rating,blackgrass; [3],6
same,"Plant response rating, Blackgrass",blackgrass; [4],8
same,"Plant response rating, Blackgrass",blackgrass; [5],10
same,Blackgrass plant response rating,blackgrass; [6],10
same,Blackgrass plant response rating,blackgrass; [10],0
same,Blackgrass plant response rating,blackgrass; [8],8
same,B. signalgrass plant response rating,surinam grass; [1],0
same,B. signalgrass plant response rating,surinam grass; [2],5
same,B. signalgrass plant response rating,surinam grass; [3],0
same,"Plant response rating, B. signalgrass",surinam grass; [4],0
same,"Plant response rating, B. signalgrass",surinam grass; [5],7
same,B. signalgrass plant response rating,surinam grass; [6],10
same,B. signalgrass plant response rating,surinam grass; [7],0
same,B. signalgrass plant response rating,"surinam grass; Rate 500 g/ha, Postemergence, scale of 0 to 10 where 0 is no effect and 10 is complete control",7
same,Corn plant response rating,corn; [9],0
same,Corn plant response rating,corn; [2],0
same,Corn plant response rating,corn; [3],0
same,"Plant response rating, Corn",corn; [4],0
same,"Plant response rating, Corn",corn; [5],7
same,Corn plant response rating,corn; [6],9
same,Corn plant response rating,corn; [10],0
same,Corn plant response rating,corn; [8],0
same,Crabgrass plant response rating,crabgrass; [9],8
same,Crabgrass plant response rating,crabgrass; [2],9
same,Crabgrass plant response rating,crabgrass; [3],2
same,"Plant response rating, Crabgrass",crabgrass; [4],7
same,"Plant response rating, Crabgrass",crabgrass; [5],9
same,Crabgrass plant response rating,crabgrass; [6],9
same,Crabgrass plant response rating,crabgrass; [10],2
same,Crabgrass plant response rating,crabgrass; [8],9
same,Giant foxtail plant response rating,giant foxtail; [9],9
same,Giant foxtail plant response rating,giant foxtail; [2],9
same,Giant foxtail plant response rating,giant foxtail; [3],5
same,"Plant response rating, Giant foxtail",giant foxtail; [4],9
same,"Plant response rating, Giant foxtail",giant foxtail; [5],10
same,Giant foxtail plant response rating,giant foxtail; [6],10
same,Giant foxtail plant response rating,giant foxtail; [10],5
same,Giant foxtail plant response rating,giant foxtail; [8],9
same,Morningglory plant response rating,morningglory; [9],4
same,Morningglory plant response rating,morningglory; [2],4
same,Morningglory plant response rating,morningglory; [3],0
same,"Plant response rating, Morningglory",morningglory; [4],0
same,"Plant response rating, Morningglory",morningglory; [5],0
same,Morningglory plant response rating,morningglory; [6],1
same,Morningglory plant response rating,morningglory; [10],1
same,Morningglory plant response rating,morningglory; [8],8
same,Redroot pigweed plant response rating,pigweed; [9],2
same,Redroot pigweed plant response rating,pigweed; [3],5
same,"Plant response rating, Redroot pigweed",pigweed; [4],8
same,"Plant response rating, Redroot pigweed",pigweed; [5],10
same,Redroot pigweed plant response rating,pigweed; [6],10
same,Redroot pigweed plant response rating,pigweed; [10],0
same,"Plant response rating, Redroot pigweed","pigweed; Rate 250 g/ha, Postemergence, scale 0 to 10, 0 is no effect, 10 is complete control",3
same,Redroot pigweed plant response rating,pigweed; [8],3
same,Rape plant response rating,rape; [9],3
same,Rape plant response rating,rape; [2],3
same,Rape plant response rating,rape; [3],0
same,"Plant response rating, Rape",rape; [4],3
same,"Plant response rating, Rape",rape; [5],6
same,Rape plant response rating,rape; [6],10
same,Rape plant response rating,rape; [10],3
same,Rape plant response rating,rape; [8],7
same,Sugarbeets plant response rating,sugar beet; [9],3
same,Sugarbeets plant response rating,sugar beet; [3],4
same,Sugarbeets plant response rating (0 to 10 scale),sugar beet; [11],6
same,"Plant response rating, Sugarbeets",sugar beet; [12],7
same,Sugarbeets plant response rating,sugar beet; [6],7
same,Sugarbeets plant response rating,sugar beet; [10],3
same,"Plant response rating, Sugarbeets",sugar beet; [13],4
same,Sugarbeets plant response rating,sugar beet; [8],5
same,Wheat plant response rating,wheat; [9],0
same,Wheat plant response rating,wheat; [3],0
same,Wheat plant response rating (0 to 10 scale),wheat; [11],0
same,"Plant response rating, Wheat",wheat; [12],2
same,Wheat plant response rating,wheat; [6],8
same,Wheat plant response rating,wheat; [10],0
same,"Plant response rating, Wheat",wheat; [13],0
same,Wheat plant response rating,wheat; [8],0
same,Wild oats plant response rating,wild oat; [9],0
same,Wild oats plant response rating,wild oat; [3],5
same,Wild oats plant response rating (0 to 10 scale),wild oat; [11],7
same,"Plant response rating, Wild oats",wild oat; [12],9
same,Wild oats plant response rating,wild oat; [6],10
same,Wild oats plant response rating,wild oat; [10],0
same,"Plant response rating, Wild oats",wild oat; [13],2
same,Wild oats plant response rating,wild oat; [8],2
same,Nutsedge plant response rating,purple nutsedge; [9],0
same,Nutsedge plant response rating,purple nutsedge; [2],0
same,Nutsedge plant response rating,purple nutsedge; [3],0
same,"Plant response rating, Nutsedge",purple nutsedge; [4],0
same,"Plant response rating, Nutsedge",purple nutsedge; [5],0
same,Nutsedge plant response rating,purple nutsedge; [6],0
same,Nutsedge plant response rating,purple nutsedge; [10],0
same,Nutsedge plant response rating,purple nutsedge; [8],0
same,Rice plant response rating,rice; [14],0
same,Rice plant response rating,rice; [15],0
same,"Plant response rating, Rice",rice; [16],0
same,Rice plant response rating,rice; [17],0
same,S. Flatsedge plant response rating,smallflower flatsedge; [14],0
same,S. Flatsedge plant response rating,smallflower flatsedge; [15],0
same,"Plant response rating, S. Flatsedge",smallflower flatsedge; [16],0
same,S. Flatsedge plant response rating,smallflower flatsedge; [17],0
same,Barnyardgrass plant response rating,bamyardgrass; [1],0
same,Barnyardgrass plant response rating,"bamyardgrass; Rate 125 g/ha, Postemergence section (flood test species), scale 0 to 10, 0 no effect, 10 complete control",0
same,Barnyardgrass plant response rating,bamyardgrass; [17],0
same,Barnyardgrass plant response rating,"bamyardgrass; flood test, listed under Postemergence, Rate 250 g/ha, scale 0 to 10, 0 no effect, 10 complete control",0

# — patent US6737383B1, “Herbicidal oxadiazolidines” (priority 1999, dated 2004)
